According to ChEMBL document CHEMBL3639354, “(EN) 3-sulfonyl-pyrazolo[1,5-a] pyrimidines / antagonists of serotonin 5-HT6 receptors, methods for the production and the use thereof” (2013):

Molecular target: 5-hydroxytryptamine receptor 6 (Homo sapiens, UniProt P50406)
Experiment: Functional Assay: Functional assay using 5-HT6 receptors.

5-hydroxytryptamine receptor 6, sequence (P50406 whole entry): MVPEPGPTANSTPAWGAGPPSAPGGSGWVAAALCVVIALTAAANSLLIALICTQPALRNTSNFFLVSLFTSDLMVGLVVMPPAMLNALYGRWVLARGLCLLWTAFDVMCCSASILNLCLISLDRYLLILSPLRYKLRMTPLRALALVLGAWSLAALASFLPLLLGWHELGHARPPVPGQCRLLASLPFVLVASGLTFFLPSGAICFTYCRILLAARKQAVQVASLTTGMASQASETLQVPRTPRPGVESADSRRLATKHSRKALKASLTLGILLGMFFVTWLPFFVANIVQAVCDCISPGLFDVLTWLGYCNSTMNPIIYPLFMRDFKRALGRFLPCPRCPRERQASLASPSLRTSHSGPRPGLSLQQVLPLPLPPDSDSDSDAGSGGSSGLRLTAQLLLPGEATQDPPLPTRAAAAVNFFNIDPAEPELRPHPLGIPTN

IC50: 46 nM
Compound: CSc1nn2c(C)cc(C)nc2c1S(=O)(=O)c1ccc(F)c(Cl)c1
